Experimental data: patent publication US20260215425A1, “NITRIFICATION INHIBITORS” (The University of Melbourne, priority 2022, published 2026)

Key:
N. europaea = experiment: standard nitrification inhibition assay (NO2- production, Griess); assay type: cell-based, Nitrosomonas europaea; settings: [NH4+]=3 mM, [inhibitor]=0.3 mM (10 mol %), pH 7.5, 30° C., 60 min
Procedure: (§1) Cells of N. multiformis and N. europaea were cultivated to the mid-exponential growth phase (OD600=0.1, [NO2^−] approximately 800 μM) and harvested by filtration onto 0.2 μm membrane filters (Mixed Cellulose Ester (MCE), Sigma Aldrich). The cells were washed with 2×100 mL of 0.1 M sodium phosphate buffer (NaPB), containing 0.2 mM MgSO4 at pH 7.5. The cells were washed from the filter paper by transferring it to a sterile 50 mL tube and resuspending in NaPB (15 mL), followed by 5 s of vortexing (Ratek, Australia) and 3 s of sonication (Vevor, Australia). […] Experiments were performed in triplicate.
(§2) In a deep 96-well plate (2 mL capacity), 980 μL of the bacterial inoculum (OD600=0.03) was added to the inhibitor (10 μL, 30 mmol L^−1 in Milli-Q water), the solutions were mixed thoroughly and pre-incubated in the dark for 5 minutes at 100 rpm and 30° C. (NH4)2SO4 (10 μL, 150 mM, from a prepared sterile solution containing 19.8 g L^−1 (NH4)2SO4 in Milli-Q water) was then added using a multi-channel pipette. The plate was covered with a with an O2 permeable membrane to ensure aeration (Breathe-Easy® sealing membrane, Sigma Aldrich) and incubated in a temperature-regulated rotary incubator (Ratek, Australia) in the dark for 60 minutes at 30° C. and 100 rpm. An aliquot of the reaction solution ([…]) was transferred to a 96-well spectrophotometric plate to which 50 µL of Griess reagent was added. The colour was allowed to develop for 15 minutes at room temperature, and the absorbance was measured at 540 nm. Each assay was accompanied by control treatments to determine the 0% and 100% NO2 signal. The percentage inhibition was calculated according to eqn. 1 from the NO2 production of the cells in NaPB (i) without additive (‘untreated cells’: 0% signal), (ii) with [NH4^+]=3 mM (‘uninhibited’ cells: 100% signal) and (iii) with [NH4^+]=3 mM and [inhibitor]=0.3 mM and 0.03 mM (10 mol % and 1 mol % of [NH4^+], ‘inhibited cells’). Experiments were performed in triplicate.

N. multiformis = experiment: as above; assay type: cell-based, Nitrosospira multiformis; settings: [NH4+]=3 mM, [inhibitor]=0.3 mM (10 mol %), pH 7.5, 30° C., 60 min
Procedure: as §1, §2

Compound | % Inhibition NE (N. europaea) [%] | % Inhibition NM (N. multiformis) [%]
C#CCCn1cc(CCC)nn1 [Compound 2] | 21 ± 2 | 40 ± 1
C#CCOC(=O)Cn1cc(CCC)nn1 [Compound 3] | 49 ± 2 | 47 ± 2
